According to US20110112145A1, “Salts Of Methyl 2-((R))-(3-Chlorophenyl)((R)-1-((S)-2-(Methylamino)-3((R)-tetrahydro-2H-Pyran-3-YL)Propylcarbamoyl)Piperidin-3-YL)Methoxy)Ethylcarbamate” (priority 2008, published 2011):
Each block holds one compound with its values, some of them ahead of it.

What was measured:
[1] = Oral bioavailability in Beagle dogs; assay type: in vivo, male Beagle dogs; conditions: Dog
Protocol: Oral pharmacokinetic data in male Beagle dogs was obtained for a solution formulation of Compound D and capsule formulations of Compound A-form I, Compound B-form I, and Compound C-form I. Compound D was administered by oral gavage as a clear, colorless solution in water containing 2% DMSO (final pH=3.5), which was filtered, using a 0.22 μm MILLEX-GV filter, prior to administration. The above noted Compounds A, B, and C were each administered at a dose of 5 mg/kg in gelatin capsules (1.37 mL). Blood (50 μL) was sampled at the following time intervals: 0, 20, 40, 60, 120, 180, 240, 360, 480, 600, and 1440 min.
(§1) The concentration of each compound was quantified by LC/MS/MS analysis of an aliquot (25 μL blood+25 μL water) of these samples and the overall blood exposure reported as the Dose-Normalized Area Under the Curve (DNAUC) from a concentration versus time plot and expressed in the units kilogram hours per liter (kg·h/L). All oral bioavailabilities were calculated by dividing the DNAUC from an oral segment by the DNAUC from an i.v. segment and multiplying by 100.

[2] = Oral bioavailability in Sprague-Dawley rats; assay type: in vivo, male Sprague-Dawley rats; conditions: for DNAUC (Dose-Normalized Area Under the Curve, blood) / Oral Bioavailability (%): Rat; for Oral Bioavailability (%): oral DNAUC / i.v. DNAUC x 100
Protocol: Oral pharmacokinetic data in male Sprague-Dawley rats was obtained for a solution formulation of Compound D and a suspension formulation of micronized Compound E. Compound D was administered by oral gavage as a clear, colorless solution in a formulation with 0.5% methylcellulose in water at a dose of 10 mg/kg (5 mL of dose solution per kg). Blood was sampled at the following time intervals: 0, 5, 15, 30, 60, 120, 180, 240, 360, 480, and 1440 min. Compound E was administered as a suspension by gastric bolus in a formulation with 1% methylcellulose in water at a dose of 5 mg/kg (10 mL of dose solution per kg). Blood (50 μL) was sampled at the following time intervals: 0, 20, 40, 60, 120, 180, 240, 360, 480, 720, 960, 1200, and 1440 min.
as §1

[3] = oral, gelatin capsule, 5 mg/kg, form I of each compound
[4] = oral, gelatin capsule, 5 mg/kg, form I of each compound, oral DNAUC / i.v. DNAUC x 100
[5] = oral gavage, solution in 0.5% methylcellulose in water, 10 mg/kg
[6] = gastric bolus, suspension of micronized compound in 1% methylcellulose in water, 5 mg/kg

DNAUC (Dose-Normalized Area Under the Curve, blood) [1, 3]: 0.64 kg·h/L
Oral Bioavailability (%) [1, 4]: 59%
Structure (SMILES): CN[C@H](CNC(=O)N1CCC[C@@H]([C@@H](OCCNC(=O)OC)c2cccc(Cl)c2)C1)C[C@H]1CCCOC1.O=C(O)C(=O)O [Compound C]

DNAUC (Dose-Normalized Area Under the Curve, blood) [1, 3]: 0.40 kg·h/L
Oral Bioavailability (%) [1, 4]: 37%
Structure (SMILES): CC(=O)N[C@@H](Cc1ccccc1)C(=O)O.CN[C@H](CNC(=O)N1CCC[C@@H]([C@@H](OCCNC(=O)OC)c2cccc(Cl)c2)C1)C[C@H]1CCCOC1 [Compound B]

Second part, the compound before the results:

Structure (SMILES): CN[C@H](CNC(=O)N1CCC[C@@H]([C@@H](OCCNC(=O)OC)c2cccc(Cl)c2)C1)C[C@H]1CCCOC1.CN[C@H](CNC(=O)N1CCC[C@@H]([C@@H](OCCNC(=O)OC)c2cccc(Cl)c2)C1)C[C@H]1CCCOC1.Cc1ccc(C(=O)O[C@@H](C(=O)O)[C@@H](OC(=O)c2ccc(C)cc2)C(=O)O)cc1 [Compound A]
DNAUC (Dose-Normalized Area Under the Curve, blood) [1, 3]: 0.38 kg·h/L
Oral Bioavailability (%) [1, 4]: 35%

Structure (SMILES): CN[C@H](CNC(=O)N1CCC[C@@H]([C@@H](OCCNC(=O)OC)c2cccc(Cl)c2)C1)C[C@H]1CCCOC1.O=C(O)/C=C/C(=O)O [Compound D, methyl 2-((R)-(3-chlorophenyl)((R)-1-((S)-2-(methylamino)-3-((R)-tetrahydro-2H-pyran-3-yl)propylcarbamoyl)piperidin-3-yl)methoxy)ethylcarbamate fumaric acid]
DNAUC (Dose-Normalized Area Under the Curve, blood) ([1]; oral gavage, solution in water containing 2% DMSO (final pH=3.5), dose not given): 0.46 kg·h/L
bioavailability ([1]; male, Beagle, whole blood, oral gavage, solution in water containing 2% DMSO (final pH=3.5), dose not given, oral DNAUC / i.v. DNAUC x 100): 43%
DNAUC (Dose-Normalized Area Under the Curve, blood) [2, 5]: 0.048 kg·h/L
Oral Bioavailability (%) [2, 5]: 37%

Structure (SMILES): CN[C@H](CNC(=O)N1CCC[C@@H]([C@@H](OCCNC(=O)OC)c2cccc(Cl)c2)C1)C[C@H]1CCCOC1.CN[C@H](CNC(=O)N1CCC[C@@H]([C@@H](OCCNC(=O)OC)c2cccc(Cl)c2)C1)C[C@H]1CCCOC1.O=C(O)c1cc2ccccc2c(Cc2c(O)c(C(=O)O)cc3ccccc23)c1O [Compound E, 2:1 pamoate salt of methyl 2-((R)-(3-chlorophenyl)((R)-1-((S)-2-(methylamino)-3-((R)-tetrahydro-2H-pyran-3-yl)propylcarbamoyl)piperidin-3-yl)methoxy)ethylcarbamate]
DNAUC (Dose-Normalized Area Under the Curve, blood) [2, 6]: 0.0067 kg·h/L
Oral Bioavailability (%) [2, 6]: 5%
in vivo oral bioavailability ([2]; statement in the background section, species not given): low
